Series [1] concerns the target T1, Acetylcholinesterase (Electrophorus electricus, UniProt O42275). Nature of the series: Competitive inhibition of electric eel AChE using acetylthiocholine iodide as substrate preincubated for 20 mins followed by substrate addition measured every 1 min for 30 mins by Dixon plot method.
Series [2] addresses T2, Cholinesterase (Equus caballus, UniProt P81908). Put plainly: Competitive inhibition of equine serum BChE using butyrylthiocholine iodide as substrate preincubated for 20 mins followed by substrate addition measured every 1 min for 30 mins by Dixon plot method.
The nature of series [3]: Selectivity ratio of Ki for equine serum BChE to Ki for electric eel AChE.
The target of series [4] is T1, Acetylcholinesterase. Put plainly: Uncompetitive inhibition of electric eel AChE using acetylthiocholine iodide as substrate preincubated for 20 mins followed by substrate addition measured every 1 min for 30 mins by Cornish-Bowden plot method.
Series [5] addresses T2, Cholinesterase. Put plainly: Uncompetitive inhibition of equine serum BChE using butyrylthiocholine iodide as substrate preincubated for 20 mins followed by substrate addition measured every 1 min for 30 mins by Cornish-Bowden plot method.
Series [6] can be described thus: Selectivity ratio of Ki for electric eel AChE to Ki for equine serum BChE.
Series [7] deals with Acetylcholinesterase (Homo sapiens, UniProt P22303). Put plainly: Inhibition of […] using acetyl-(beta-methyl)thiocholine as substrate preincubated for 30 mins followed by substrate addition measured after 25 mins by spectrophotometric method.
Acetylcholinesterase (Homo sapiens, UniProt P22303), sequence (P22303 whole entry): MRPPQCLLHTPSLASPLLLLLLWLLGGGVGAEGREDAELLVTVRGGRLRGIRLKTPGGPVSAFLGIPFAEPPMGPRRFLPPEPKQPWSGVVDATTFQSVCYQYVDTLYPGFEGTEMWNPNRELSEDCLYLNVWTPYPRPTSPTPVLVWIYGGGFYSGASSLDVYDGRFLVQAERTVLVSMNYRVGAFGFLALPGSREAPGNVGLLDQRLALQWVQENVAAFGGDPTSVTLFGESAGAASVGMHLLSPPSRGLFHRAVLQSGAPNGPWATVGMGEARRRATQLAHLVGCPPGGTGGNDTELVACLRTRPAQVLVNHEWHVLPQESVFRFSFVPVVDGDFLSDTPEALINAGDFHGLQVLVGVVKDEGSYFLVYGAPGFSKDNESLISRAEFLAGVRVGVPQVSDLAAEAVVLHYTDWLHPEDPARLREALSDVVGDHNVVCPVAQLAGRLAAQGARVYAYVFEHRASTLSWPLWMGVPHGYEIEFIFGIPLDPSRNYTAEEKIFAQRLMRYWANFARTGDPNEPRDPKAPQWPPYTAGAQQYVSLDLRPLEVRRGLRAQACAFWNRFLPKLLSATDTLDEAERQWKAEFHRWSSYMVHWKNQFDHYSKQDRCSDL
Series [8] concerns the target T3, Cholinesterase (Homo sapiens, UniProt P06276). Nature of the series: Inhibition of […] using S-butyrylthiocholine as substrate preincubated for 30 mins followed by substrate addition measured after 25 mins by spectrophotometric method.
In series [9] the target is T3, Cholinesterase. Nature of the series: Inhibition of human serum BChE using butyrylthiocholine iodide as substrate by Ellman's method. For orientation: Ellman's reagent forms a yellow product with free thiols.
Series [10] in a line: Chemical stability in TRIS buffer at pH 8 measured over 2880 mins by HPLC method. In kind it is physicochemical. To be noted: pH 8, 48 h.
Series [11] can be described thus: Chemical stability in TRIS buffer at pH 8 measured over 2880 mins in presence of BChE by HPLC method. In kind it is physicochemical. To be noted: pH 8, 48 h.

This note sets out measurements from ChEMBL document CHEMBL4002583, “Amino derivatives of platanic acid act as selective and potent inhibitors of butyrylcholinesterase” (Eur J Med Chem, 2017).

T2 sequence (P81908 whole entry): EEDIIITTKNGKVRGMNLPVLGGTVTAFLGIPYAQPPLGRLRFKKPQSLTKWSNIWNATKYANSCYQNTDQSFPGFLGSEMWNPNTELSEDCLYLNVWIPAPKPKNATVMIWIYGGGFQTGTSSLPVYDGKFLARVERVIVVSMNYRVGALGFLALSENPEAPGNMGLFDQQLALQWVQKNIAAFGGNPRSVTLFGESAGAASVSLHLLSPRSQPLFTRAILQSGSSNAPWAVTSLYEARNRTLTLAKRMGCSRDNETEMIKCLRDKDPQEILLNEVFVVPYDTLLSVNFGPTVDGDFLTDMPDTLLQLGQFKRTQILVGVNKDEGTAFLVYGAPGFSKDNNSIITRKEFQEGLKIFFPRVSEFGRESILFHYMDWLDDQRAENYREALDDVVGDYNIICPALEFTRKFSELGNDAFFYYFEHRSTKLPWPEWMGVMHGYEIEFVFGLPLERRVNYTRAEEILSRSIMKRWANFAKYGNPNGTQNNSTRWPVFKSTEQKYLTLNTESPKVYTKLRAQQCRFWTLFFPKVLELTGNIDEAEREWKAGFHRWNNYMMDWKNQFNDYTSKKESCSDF
T1 sequence (O42275 whole entry): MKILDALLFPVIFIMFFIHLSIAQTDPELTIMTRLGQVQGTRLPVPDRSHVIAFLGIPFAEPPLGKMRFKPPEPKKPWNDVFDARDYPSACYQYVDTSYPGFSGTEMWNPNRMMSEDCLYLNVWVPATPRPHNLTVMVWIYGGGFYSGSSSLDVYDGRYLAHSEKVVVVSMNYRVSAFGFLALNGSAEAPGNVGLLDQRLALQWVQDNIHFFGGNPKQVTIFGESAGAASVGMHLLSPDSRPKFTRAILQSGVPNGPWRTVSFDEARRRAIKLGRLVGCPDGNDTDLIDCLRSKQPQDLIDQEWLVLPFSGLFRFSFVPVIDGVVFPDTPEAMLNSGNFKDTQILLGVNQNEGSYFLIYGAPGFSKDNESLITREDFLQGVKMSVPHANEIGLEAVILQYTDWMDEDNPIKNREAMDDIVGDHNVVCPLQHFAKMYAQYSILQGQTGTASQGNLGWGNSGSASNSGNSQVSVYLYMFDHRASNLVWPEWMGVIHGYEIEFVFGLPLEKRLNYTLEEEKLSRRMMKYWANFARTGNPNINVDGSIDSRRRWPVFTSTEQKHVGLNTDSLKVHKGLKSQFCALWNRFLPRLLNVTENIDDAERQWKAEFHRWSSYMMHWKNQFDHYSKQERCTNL
T3 sequence (P06276 whole entry): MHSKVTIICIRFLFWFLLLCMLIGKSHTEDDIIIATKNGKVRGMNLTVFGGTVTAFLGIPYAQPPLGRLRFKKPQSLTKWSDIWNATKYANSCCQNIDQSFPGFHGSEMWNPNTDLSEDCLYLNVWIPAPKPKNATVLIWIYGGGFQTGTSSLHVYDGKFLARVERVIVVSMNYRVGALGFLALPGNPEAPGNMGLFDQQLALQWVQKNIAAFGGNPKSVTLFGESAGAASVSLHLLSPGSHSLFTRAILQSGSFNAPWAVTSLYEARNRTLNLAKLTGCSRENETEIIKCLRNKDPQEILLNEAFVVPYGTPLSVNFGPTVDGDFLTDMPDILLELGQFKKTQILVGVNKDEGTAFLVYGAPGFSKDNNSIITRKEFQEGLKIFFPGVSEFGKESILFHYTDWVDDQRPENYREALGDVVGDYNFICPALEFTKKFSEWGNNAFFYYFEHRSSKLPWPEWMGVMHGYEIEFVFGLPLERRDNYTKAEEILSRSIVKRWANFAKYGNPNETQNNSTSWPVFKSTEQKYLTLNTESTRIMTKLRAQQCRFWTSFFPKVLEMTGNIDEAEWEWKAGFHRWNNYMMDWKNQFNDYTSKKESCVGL

In the case of `CC(=O)O[C@H]1CC[C@]2(C)[C@H]3CC[C@@H]4[C@H]5[C@H](C(C)=O)CC[C@]5(C(=O)O)CC[C@@]4(C)[C@]3(C)CC[C@H]2C1(C)C`, the Ki is 9 µM at Acetylcholinesterase [1] and more than 10000 nM at Cholinesterase [2]. The Ratio Ki in series [3] is more than 1.1.

Turning to `CC(=O)O[C@H]1CC[C@]2(C)[C@H]3CC[C@@H]4[C@H]5[C@H](C(C)=O)CC[C@]5(C(=O)OCc5ccccc5)CC[C@@]4(C)[C@]3(C)CC[C@H]2C1(C)C`, the Ki at Acetylcholinesterase [1] was 0.09 µM; on Acetylcholinesterase [4], 0.21 µM; on Cholinesterase [2], 33100 nM; on Cholinesterase [5] it was more than 400 µM. Moreover, the Ratio Ki in series [3] worked out at 368.

Regarding `C[C@@H](N)[C@@H]1CC[C@]2(CO)CC[C@]3(C)[C@H](CC[C@@H]4[C@@]5(C)CC[C@H](O)C(C)(C)[C@@H]5CC[C@]43C)[C@@H]12`, the Ki on Acetylcholinesterase [1] was found to be 53.1 µM; at Acetylcholinesterase [4], 104 µM; at Cholinesterase [2] it was 140 nM; at Cholinesterase [5], 1.89 µM. Also, in series [6], the Ratio Ki was determined as 378.

With `CC(C)c1ccc(NC(=O)Oc2ccc3c(c2)[C@]2(C)CCN[C@@H]2N3)cc1`, the IC50 worked out at 110 nM against Acetylcholinesterase [7] and 1 nM at Cholinesterase [8]. The compound further returned a Ki at Cholinesterase [9] of 0.131 nM.

With `CC(=O)OC[C@]12CC[C@@H]([C@@H](C)N)[C@@H]1[C@H]1CC[C@@H]3[C@@]4(C)CC[C@H](OC(C)=O)C(C)(C)[C@@H]4CC[C@@]3(C)[C@]1(C)CC2`, the values for the Ki at Acetylcholinesterase [1], at Cholinesterase [2] and at Cholinesterase [5] were 4.5 µM, 60 nM and 0.37 µM, respectively. Also, in [6], the Ratio Ki amounted to 75.

As to `C[C@@H](N)[C@@H]1CC[C@]2(C(=O)OCc3ccccc3)CC[C@]3(C)[C@H](CC[C@@H]4[C@@]5(C)CC[C@H](O)C(C)(C)[C@@H]5CC[C@]43C)[C@@H]12`, the Ki at Acetylcholinesterase [1] came to 11 µM; at Acetylcholinesterase [4], 47.8 µM; at Cholinesterase [2], 70 nM; at Cholinesterase [5] it was 0.19 µM. Further, the Ratio Ki in [6] was 157. In addition, the Stability result in series [10] and in [11] was “Stable” throughout.

For the compound `CC(=O)[C@@H]1CC[C@]2(C(=O)NCCN)CC[C@]3(C)[C@H](CC[C@@H]4[C@@]5(C)CC[C@H](O)C(C)(C)[C@@H]5CC[C@]43C)[C@@H]12`, the Ki is 7.18 µM on Acetylcholinesterase [1], 9.71 µM on Acetylcholinesterase [4], 8370 nM on Cholinesterase [2] and more than 110 µM on Cholinesterase [5]. In addition, the Ratio Ki in [3] is 1.2.

In the case of `CC(=O)O[C@H]1CC[C@]2(C)[C@H]3CC[C@@H]4[C@H]5[C@H](C(C)=O)CC[C@]5(C(N)=O)CC[C@@]4(C)[C@]3(C)CC[C@H]2C1(C)C`, the Ki was 8.16 µM on Acetylcholinesterase [1], 10.9 µM on Acetylcholinesterase [4] and more than 10000 nM at Cholinesterase [2]. In series [3], the Ratio Ki is more than 1.2.

As for `COC(=O)[C@]12CC[C@@H]([C@H](C)NC(C)=O)[C@@H]1[C@H]1CC[C@@H]3[C@@]4(C)CC[C@H](OC(C)=O)C(C)(C)[C@@H]4CC[C@@]3(C)[C@]1(C)CC2`, the values for the Ki on Acetylcholinesterase [1], on Acetylcholinesterase [4] and at Cholinesterase [2] were 11.8 µM, 45.6 µM and more than 40000 nM, respectively. In addition, the Ratio Ki in series [3] was more than 3.4.

For the compound `COC(=O)[C@]12CC[C@@H](C(C)=O)[C@@H]1[C@H]1CC[C@@H]3[C@@]4(C)CC[C@H](O)C(C)(C)[C@@H]4CC[C@@]3(C)[C@]1(C)CC2`, the Ki was 0.76 µM at Acetylcholinesterase [1] and more than 4000 nM on Cholinesterase [2]. Moreover, the Ratio Ki in series [3] is more than 5.

Turning to `CC(=O)O[C@H]1CC[C@]2(C)[C@H]3CC[C@@H]4[C@H]5[C@H]([C@@H](C)N)CC[C@]5(C(=O)O)CC[C@@]4(C)[C@]3(C)CC[C@H]2C1(C)C`, the figures for the Ki at Acetylcholinesterase [1], on Cholinesterase [2] and at Cholinesterase [5] were 20.9 µM, 100 nM and 2.75 µM, respectively. In series [6], the Ratio Ki was determined as 209.

As for `CC(=O)O[C@H]1CC[C@]2(C)[C@H]3CC[C@@H]4[C@H]5[C@H]([C@@H](C)N)CC[C@]5(C(=O)OCc5ccccc5)CC[C@@]4(C)[C@]3(C)CC[C@H]2C1(C)C`, the Ki on Acetylcholinesterase [1] stood at 8.51 µM; at Acetylcholinesterase [4] it was 17 µM; at Cholinesterase [2] it was 10 nM; on Cholinesterase [5], 0.4 µM. Moreover, in series [6], the Ratio Ki was determined as 851.

On to `CC(=O)[C@@H]1CC[C@]2(C(=O)OCc3ccccc3)CC[C@]3(C)[C@H](CC[C@@H]4[C@@]5(C)CC[C@H](O)C(C)(C)[C@@H]5CC[C@]43C)[C@@H]12`, for which the Ki at Acetylcholinesterase [1] is 0.59 µM; on Acetylcholinesterase [4], 4.06 µM; on Cholinesterase [2] it was more than 10000 nM. The Ratio Ki in [3] was more than 17.

With `COC(=O)[C@]12CC[C@@H]([C@@H](C)NC(C)=O)[C@@H]1[C@H]1CC[C@@H]3[C@@]4(C)CC[C@H](OC(C)=O)C(C)(C)[C@@H]4CC[C@@]3(C)[C@]1(C)CC2`, the results for the Ki on Acetylcholinesterase [1] and on Cholinesterase [2] were more than 4 µM and more than 4000 nM, respectively.

Take `CC(=O)[C@@H]1CC[C@]2(C(=O)OCc3ccccc3)CC[C@]3(C)[C@H](CC[C@@H]4[C@@]5(C)CC[C@@H](N)C(C)(C)[C@@H]5CC[C@]43C)[C@@H]12`: the Ki on Acetylcholinesterase [1] was 20.3 µM; at Acetylcholinesterase [4], more than 90 µM; on Cholinesterase [2] it was 1800 nM; at Cholinesterase [5], 5.98 µM. In addition, the Ratio Ki in [6] worked out at 11.

As to `CC(=O)[C@@H]1CC[C@]2(C(=O)O)CC[C@]3(C)[C@H](CC[C@@H]4[C@@]5(C)CC[C@H](O)C(C)(C)[C@@H]5CC[C@]43C)[C@@H]12` [PLATANIC ACID], the Ki was 31.6 µM on Acetylcholinesterase [1], 36.9 µM at Acetylcholinesterase [4] and more than 50000 nM at Cholinesterase [2]. In series [3], the Ratio Ki is more than 1.6.

For the compound `CC(=O)O[C@H]1CC[C@]2(C)[C@H]3CC[C@@H]4[C@H]5[C@H](/C(C)=N/O)CC[C@]5(C(=O)O)CC[C@@]4(C)[C@]3(C)CC[C@H]2C1(C)C`, the Stability entry in series [10] and in [11] was “Stable” throughout.

Turning to `COC(=O)[C@]12CC[C@@H](NC(C)=O)[C@@H]1[C@H]1CC[C@@H]3[C@@]4(C)CC[C@H](OC(C)=O)C(C)(C)[C@@H]4CC[C@@]3(C)[C@]1(C)CC2`, the Ki is 14.1 µM at Acetylcholinesterase [1] and more than 20000 nM on Cholinesterase [2]. Further, the Ratio Ki in [3] was more than 1.4.

Regarding `CC(=O)[C@@H]1CC[C@]2(C(=O)OCc3ccccc3)CC[C@]3(C)[C@H](CC[C@@H]4[C@@]5(C)CCC(=O)C(C)(C)[C@@H]5CC[C@]43C)[C@@H]12`, the Ki at Acetylcholinesterase [1] was 2.63 µM; on Acetylcholinesterase [4] it was 4.59 µM; at Cholinesterase [2] it was more than 10000 nM. In addition, the Ratio Ki in [3] was more than 3.8.

Consider `CC(=O)O[C@H]1CC[C@]2(C)[C@H]3CC[C@@H]4[C@H]5[C@H]([C@H](C)N)CC[C@]5(C(=O)OCc5ccccc5)CC[C@@]4(C)[C@]3(C)CC[C@H]2C1(C)C`, for which the Ki is 10.7 µM at Acetylcholinesterase [1], 34.2 µM at Acetylcholinesterase [4], 380 nM on Cholinesterase [2] and 6.78 µM at Cholinesterase [5]. Also, the Ratio Ki in series [6] stood at 28.

`CC(=O)[C@@H]1CC[C@]2(N)CC[C@]3(C)[C@H](CC[C@@H]4[C@@]5(C)CC[C@H](O)C(C)(C)[C@@H]5CC[C@]43C)[C@@H]12`: the Ki on Acetylcholinesterase [1] was 20.9 µM; on Acetylcholinesterase [4], more than 120 µM; at Cholinesterase [2] it was 6390 nM; on Cholinesterase [5] it was 38.9 µM. Besides, the Ratio Ki in series [6] came out at 3.3.

For `CCC(=O)O/N=C(\C)[C@@H]1CC[C@]2(C(=O)OC)CC[C@]3(C)[C@H](CC[C@@H]4[C@@]5(C)CC[C@H](OC(C)=O)C(C)(C)[C@@H]5CC[C@]43C)[C@@H]12`, the Ki on Acetylcholinesterase [1] was more than 30 µM; on Cholinesterase [2], more than 30000 nM.

Turning to `CC(=O)[C@@H]1CC[C@]2(C(=O)OCc3ccccc3)CC[C@]3(C)[C@H](CC[C@@H]4[C@@]5(C)CC[C@H](N)C(C)(C)[C@@H]5CC[C@]43C)[C@@H]12`, the Ki amounted to 13.4 µM on Acetylcholinesterase [1], 76.6 µM at Acetylcholinesterase [4], 560 nM on Cholinesterase [2] and 3.5 µM at Cholinesterase [5]. Moreover, the Ratio Ki in series [6] worked out at 24.

For `CC(=O)O[C@H]1CC[C@]2(C)[C@H]3CC[C@@H]4[C@H]5[C@H](C(C)=O)CC[C@]5(C(=O)NCCN)CC[C@@]4(C)[C@]3(C)CC[C@H]2C1(C)C`, the Ki was found to be 3.06 µM on Acetylcholinesterase [1], 6.83 µM at Acetylcholinesterase [4], 11900 nM at Cholinesterase [2] and 17.1 µM at Cholinesterase [5]. Besides, the Ratio Ki in series [3] was 3.9.

`COC(=O)[C@]12CC[C@@H]([C@@H](C)N)[C@@H]1[C@H]1CC[C@@H]3[C@@]4(C)CC[C@H](OC(C)=O)C(C)(C)[C@@H]4CC[C@@]3(C)[C@]1(C)CC2`: the Ki on Acetylcholinesterase [1] was more than 4 µM; on Cholinesterase [2] it was 90 nM; on Cholinesterase [5], 0.05 µM. Besides, in [6], the Ratio Ki was more than 44.

Turning to `COC(=O)[C@]12CC[C@@H](/C(C)=N/OC(C)=O)[C@@H]1[C@H]1CC[C@@H]3[C@@]4(C)CC[C@H](OC(C)=O)C(C)(C)[C@@H]4CC[C@@]3(C)[C@]1(C)CC2`, the Ki on Acetylcholinesterase [1] is more than 15 µM; on Cholinesterase [2], more than 15000 nM.

For the compound `COC(=O)[C@]12CC[C@@H]([C@H](C)N)[C@@H]1[C@H]1CC[C@@H]3[C@@]4(C)CC[C@H](OC(C)=O)C(C)(C)[C@@H]4CC[C@@]3(C)[C@]1(C)CC2`, the Ki on Acetylcholinesterase [1] was more than 40 µM; at Acetylcholinesterase [4], more than 80 µM; at Cholinesterase [2] it was 230 nM; on Cholinesterase [5], 3.89 µM. For the same compound, the Ratio Ki in series [6] was more than 173.

For orientation: Ki means a measure of affinity in units of concentration, obtained from inhibition or displacement. The term IC50 denotes the concentration that inhibits the measured activity by half. Higher therefore signals weaker potency.
